24 compounds from patent US9428508B2, “2,4-diamino-6,7-dihydro-5H-pyrrolo[2,3]pyrimidine derivatives as FAK/Pyk2 inhibitors” (Centaurus BioPharma Co., Ltd., priority 2011, dated 2016) can be followed below.

One test deals with FAK (Homo sapiens (Human), UniProt Q05397). Description: Biochemical assay for FAK activity (LANCE TR-FRET, ULight-poly Glu,Ala,Tyr substrate). The settings on record: GST-tagged FAK, 120 min reaction. The procedure, abridged: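 GST-tagged FAK (2.5 nM working stock) with ULight-poly Glu,Ala,Tyr (666 nM stock) and ATP (33.3 μM stock) in Tris pH 7.5/MgCl2/DTT/CHAPS buffer with BSA, 120 min; EDTA-quenched. Phosphorylation read by TR-FRET with Eu-anti-phosphotyrosine (PY20) antibody after 60 min. Compounds tested as 12-point 3-fold dilutions.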
Background: TR-FRET usually uses a lanthanide donor and a delayed reading to cut background.

Another test concerns the target PYK2 (Homo sapiens (Human), UniProt Q14289). Briefly: Biochemical assay for PYK2 activity (LANCE TR-FRET, ULight-poly Glu,Ala,Tyr substrate). The settings on record: GST-tagged PYK2, 40 min reaction. The procedure, abridged: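 GST-tagged human PYK2 (2 nM working stock) with ULight-poly Glu,Ala,Tyr (1:1:1) peptide (666 nM working stock) and ATP (46.6 μM working stock) in 40 mM Tris pH 7.5, MgCl2, 1 mM DTT, 1 mM CHAPS; 40 min reaction, EDTA quench. Phosphotyrosine read by LANCE Eu-anti-phosphotyrosine (PY20) TR-FRET after 60 min; 12-point 3-fold compound dilutions.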

pIC50: −log10 of the molar value. Some results are limits rather than exact numbers.

Chain of PYK2 (Q14289 whole entry): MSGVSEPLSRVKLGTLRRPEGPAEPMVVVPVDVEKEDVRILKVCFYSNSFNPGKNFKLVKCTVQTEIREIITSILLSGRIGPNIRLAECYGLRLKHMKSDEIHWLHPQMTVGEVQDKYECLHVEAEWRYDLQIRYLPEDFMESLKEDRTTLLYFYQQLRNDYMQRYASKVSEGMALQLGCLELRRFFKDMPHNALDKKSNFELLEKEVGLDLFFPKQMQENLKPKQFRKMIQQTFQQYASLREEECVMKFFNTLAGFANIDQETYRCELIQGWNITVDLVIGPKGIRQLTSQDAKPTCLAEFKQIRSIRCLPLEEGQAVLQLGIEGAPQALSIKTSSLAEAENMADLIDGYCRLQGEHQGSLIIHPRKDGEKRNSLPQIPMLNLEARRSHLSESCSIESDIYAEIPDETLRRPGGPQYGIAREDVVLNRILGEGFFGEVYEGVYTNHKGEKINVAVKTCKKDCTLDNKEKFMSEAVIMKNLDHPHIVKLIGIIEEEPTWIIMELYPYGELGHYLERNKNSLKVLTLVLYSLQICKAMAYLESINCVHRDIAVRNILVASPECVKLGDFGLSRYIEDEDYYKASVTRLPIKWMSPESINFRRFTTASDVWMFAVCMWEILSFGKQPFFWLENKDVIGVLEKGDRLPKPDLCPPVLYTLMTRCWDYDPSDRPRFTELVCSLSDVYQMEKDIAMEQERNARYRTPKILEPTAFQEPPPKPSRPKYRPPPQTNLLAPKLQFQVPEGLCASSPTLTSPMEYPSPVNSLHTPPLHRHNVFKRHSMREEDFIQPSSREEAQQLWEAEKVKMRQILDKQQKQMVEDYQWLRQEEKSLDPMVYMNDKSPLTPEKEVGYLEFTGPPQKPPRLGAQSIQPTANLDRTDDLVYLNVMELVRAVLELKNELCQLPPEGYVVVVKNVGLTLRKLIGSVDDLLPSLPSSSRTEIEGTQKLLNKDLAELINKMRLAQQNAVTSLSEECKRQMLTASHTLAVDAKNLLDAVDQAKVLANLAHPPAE
Chain of FAK (Q05397 whole entry): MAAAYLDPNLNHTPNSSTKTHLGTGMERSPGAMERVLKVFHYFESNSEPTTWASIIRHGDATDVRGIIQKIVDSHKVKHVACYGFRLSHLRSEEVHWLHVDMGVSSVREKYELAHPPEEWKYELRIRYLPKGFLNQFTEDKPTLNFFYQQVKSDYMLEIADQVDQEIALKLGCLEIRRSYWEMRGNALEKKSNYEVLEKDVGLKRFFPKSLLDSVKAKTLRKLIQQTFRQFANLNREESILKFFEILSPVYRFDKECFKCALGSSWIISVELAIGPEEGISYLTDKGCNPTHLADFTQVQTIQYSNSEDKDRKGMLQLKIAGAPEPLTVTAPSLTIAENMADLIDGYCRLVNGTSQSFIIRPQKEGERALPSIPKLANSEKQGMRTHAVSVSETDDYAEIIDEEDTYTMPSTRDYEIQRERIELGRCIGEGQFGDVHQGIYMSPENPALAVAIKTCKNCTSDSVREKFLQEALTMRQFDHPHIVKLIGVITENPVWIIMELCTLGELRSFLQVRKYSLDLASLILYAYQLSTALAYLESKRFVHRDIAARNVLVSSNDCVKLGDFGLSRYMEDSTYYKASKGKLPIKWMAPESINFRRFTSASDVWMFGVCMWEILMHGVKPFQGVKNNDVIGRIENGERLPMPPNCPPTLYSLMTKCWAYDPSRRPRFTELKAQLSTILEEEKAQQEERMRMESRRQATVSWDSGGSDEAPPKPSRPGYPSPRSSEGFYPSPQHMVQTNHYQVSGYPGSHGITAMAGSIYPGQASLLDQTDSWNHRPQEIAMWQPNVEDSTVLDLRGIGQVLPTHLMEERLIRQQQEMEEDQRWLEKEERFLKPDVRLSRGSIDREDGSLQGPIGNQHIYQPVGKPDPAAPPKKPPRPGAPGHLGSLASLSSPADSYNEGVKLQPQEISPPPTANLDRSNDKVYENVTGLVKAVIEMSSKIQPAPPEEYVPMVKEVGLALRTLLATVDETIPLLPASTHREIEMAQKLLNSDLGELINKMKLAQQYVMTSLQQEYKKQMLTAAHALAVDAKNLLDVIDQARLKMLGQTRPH

As to `CCC(C)NS(=O)(=O)c1ccccc1Nc1nc(Nc2ccc(N3CCOCC3)cc2OC)nc2c1C(C)(C)CN2` (stereo not drawn) [Example 112, N-sec-butyl-2-(2-(2-methoxy-4-morpholinophenylamino)-5,5-dimethyl-6,7-dihydro-5H-pyrrolo[2,3-d]pyrimidin-4-ylamino)benzenesulfonamide], the negative-log IC50 (pIC50) against FAK and at PYK2 was more than 7.70 each time.

In the case of `COc1cc(N2CCC(N3CCNCC3)CC2)ccc1Nc1nc2c(c(Nc3ccccc3P(C)(C)=O)n1)CCN2` [Example 163, N^4-(2-(dimethylphosphoryl)phenyl)-N^2-(2-methoxy-4-(4-(piperazin-1-yl)piperidin-1-yl)phenyl)-6,7-dihydro-5H-pyrrolo[2,3-d]pyrimidine-2,4-diamine], the negative-log IC50 (pIC50) is more than 7.00 against FAK and more than 7.30 at PYK2.

With `COc1cc(N2CCOCC2)ccc1Nc1nc2c(c(Nc3ccccc3S(=O)(=O)NC3CCCC3)n1)C(C)(C)CN2` [Example 108, N-cyclopentyl-2-(2-(2-methoxy-4-morpholinophenylamino)-5,5-dimethyl-6,7-dihydro-5H-pyrrolo[2,3-d]pyrimidin-4-ylamino)benzenesulfonamide], the values for the negative-log IC50 (pIC50) at FAK and on PYK2 were more than 6.70 and more than 6.30, respectively.

On to `COc1cc(N2CCOCC2)ccc1Nc1nc2c(c(Nc3ccccc3C(=O)N3CCCC3)n1)C(C)(C)CN2` [Example 121, (2-(2-(2-methoxy-4-morpholinophenylamino)-5,5-dimethyl-6,7-dihydro-5H-pyrrolo[2,3-d]pyrimidin-4-ylamino)phenyl)(pyrrolidin-1-yl)methanone], for which the negative logarithm of the IC50 (pIC50) at FAK and at PYK2 was more than 6.70 each time.

Regarding `CCN1C(=O)CCCc2c1ccc(Nc1nc3c(c(Nc4ccccc4C(=O)NC)n1)CCN3)c2OC` [Example 17, 2-(2-(1-ethyl-6-methoxy-2-oxo-2,3,4,5-tetrahydro-1H-benzo[b]azepin-7-ylamino)-6,7-dihydro-5H-pyrrolo[2,3-d]pyrimidin-4-ylamino)-N-methylbenzamide], the pIC50 at FAK was more than 6.00; against PYK2 it was more than 6.70.

On to `CNS(=O)(=O)c1ccc(Nc2nc3c(c(Nc4ccccc4S(=O)(=O)NC(C)C)n2)CCN3)cc1` [Example 64, N-isopropyl-2-(2-(4-(N-methylsulfamoyl)phenylamino)-6,7-dihydro-5H-pyrrolo[2,3-d]pyrimidin-4-ylamino)benzenesulfonamide], for which the pIC50 against FAK and against PYK2 was more than 7.70 in each case.

Take `COc1cc(N2CCOCC2)ccc1Nc1nc2c(c(NCc3ccccc3N(C)S(C)(=O)=O)n1)CCN2` [Example 11, N-(2-((2-(2-methoxy-4-morpholinophenylamino)-6,7-dihydro-5H-pyrrolo[2,3-d]pyrimidin-4-ylamino)methyl)phenyl)-N-methylmethanesulfonamide]: the pIC50 at FAK is more than 7.00; at PYK2 it was less than 5.70.

For `COc1cc(N2CCOCC2)ccc1Nc1nc2c(c(Nc3ccccc3S(=O)(=O)NC(C)(C)C)n1)C(C)(C)CN2` [Example 117, N-tert-butyl-2-(2-(2-methoxy-4-morpholinophenylamino)-5,5-dimethyl-6,7-dihydro-5H-pyrrolo[2,3-d]pyrimidin-4-ylamino)benzenesulfonamide], the pIC50 against FAK and against PYK2 was more than 7.70 each time.

Take `COc1cc(N2CCOCC2)ccc1Nc1nc2c(c(Nc3cccc(C)n3)n1)CCN2` [Example 12, N^2-(2-methoxy-4-morpholinophenyl)-N^4-(6-methylpyridin-2-yl)-6,7-dihydro-5H-pyrrolo[2,3-d]pyrimidine-2,4-diamine]: the negative logarithm of the IC50 (pIC50) on FAK and at PYK2 was more than 7.00 in each case.

On to `CC(C)NS(=O)(=O)c1ccccc1Nc1nc(Nc2ccc(C(=O)N(C)C)cc2)nc2c1CCN2` [Example 62, 4-(4-(2-(N-isopropylsulfamoyl)phenylamino)-6,7-dihydro-5H-pyrrolo[2,3-d]pyrimidin-2-ylamino)-N,N-dimethylbenzamide], for which the pIC50 on FAK and against PYK2 was more than 7.70 throughout.

On to `COc1cc(N2CCOCC2)ccc1Nc1nc2c(c(Nc3ccccc3S(=O)(=O)NC3CCCC3)n1)C(C)CN2` (racemic) [Example 28, (±)-N-cyclopentyl-2-(2-(2-methoxy-4-morpholinophenylamino)-5-methyl-6,7-dihydro-5H-pyrrolo[2,3-d]pyrimidin-4-ylamino)benzenesulfonamide], for which the figures for the negative logarithm of the IC50 (pIC50) against FAK and at PYK2 were more than 6.52 and more than 7.30, respectively.

On to `COc1cc(OCCN2CCOCC2)ccc1Nc1nc2c(c(Nc3ccccc3S(=O)(=O)NC(C)C)n1)CCN2` [Example 70, N-isopropyl-2-(2-(2-methoxy-4-(2-morpholinoethoxy)phenylamino)-6,7-dihydro-5H-pyrrolo[2,3-d]pyrimidin-4-ylamino)benzenesulfonamide], for which the negative-log IC50 (pIC50) against FAK and against PYK2 was more than 7.70 in each case.

As to `CC(C)NS(=O)(=O)c1ccccc1Nc1nc(Nc2cccc(NS(C)(=O)=O)c2)nc2c1CCN2` [Example 73, N-isopropyl-2-(2-(3-(methylsulfonamido)phenylamino)-6,7-dihydro-5H-pyrrolo[2,3-d]pyrimidin-4-ylamino)benzenesulfonamide], the pIC50 on FAK and on PYK2 was more than 7.70 in each case.

Regarding `COc1cc(N2CCOCC2)ccc1Nc1nc2c(c(Nc3ccccc3C(=O)N3CCCC3)n1)C(C)CN2` (racemic) [Example 24, (±)-(2-(2-(2-methoxy-4-morpholinophenylamino)-5-methyl-6,7-dihydro-5H-pyrrolo[2,3-d]pyrimidin-4-ylamino)phenyl)(pyrrolidin-1-yl)methanone], the negative-log IC50 (pIC50) at FAK is more than 6.70; on PYK2, more than 6.30.

Turning to `COc1cc(N2CCOCC2)ccc1Nc1nc2c(c(Nc3ccccc3C(=O)N3CCCC3)n1)CCN2` [Example 3, (2-(2-(2-methoxy-4-morpholinophenylamino)-6,7-dihydro-5H-pyrrolo[2,3-d]pyrimidin-4-ylamino)phenyl)(pyrrolidin-1-yl)methanone], the pIC50 against FAK and against PYK2 was less than 6.00 each time.

For the compound `COc1cc(N2CCOCC2)ccc1Nc1nc2c(c(Nc3ccccc3S(=O)(=O)NC3CCC3)n1)[C@H](C)CN2` [Example 36, (S)—N-cyclobutyl-2-(2-(2-methoxy-4-morpholinophenylamino)-5-methyl-6,7-dihydro-5H-pyrrolo[2,3-d]pyrimidin-4-ylamino)benzenesulfonamide], the pIC50 at FAK and on PYK2 was more than 7.70 throughout.

On to `COc1cc(N2CCOCC2)ccc1Nc1nc2c(c(Nc3ccccc3S(=O)(=O)NCCO)n1)C(C)(C)CN2` [Example 119, N-(2-hydroxyethyl)-2-(2-(2-methoxy-4-morpholinophenylamino)-5,5-dimethyl-6,7-dihydro-5H-pyrrolo[2,3-d]pyrimidin-4-ylamino)benzenesulfonamide], for which the pIC50 was more than 6.30 on FAK and more than 6.70 against PYK2.

On to `CNS(=O)(=O)c1ccccc1Nc1nc(Nc2ccc(N3CCOCC3)cc2OC)nc2c1C(C)CN2` (racemic) [Example 25, (±)-2-(2-(2-methoxy-4-morpholinophenylamino)-5-methyl-6,7-dihydro-5H-pyrrolo[2,3-d]pyrimidin-4-ylamino)-N-methylbenzenesulfonamide], for which the pIC50 against FAK is more than 7.30; at PYK2, more than 7.70.

As for `COc1cc(N2CCOCC2)ccc1Nc1nc2c(c(Nc3ccccc3S(=O)(=O)NC(C)C)n1)C(C)(C)CN2` [Example 105, N-isopropyl-2-(2-(2-methoxy-4-morpholinophenylamino)-5,5-dimethyl-6,7-dihydro-5H-pyrrolo[2,3-d]pyrimidin-4-ylamino)benzenesulfonamide], the negative-log IC50 (pIC50) on FAK and against PYK2 was more than 7.70 each time.

Consider `CCCNS(=O)(=O)c1ccccc1Nc1nc(Nc2ccc(N3CCOCC3)cc2OC)nc2c1C(C)CN2` (racemic) [Example 26, (±)-2-(2-(2-methoxy-4-morpholinophenylamino)-5-methyl-6,7-dihydro-5H-pyrrolo[2,3-d]pyrimidin-4-ylamino)-N-propylbenzenesulfonamide], for which the pIC50 at FAK and at PYK2 was more than 7.70 throughout.

Take `COc1cc(N2CCOCC2)ccc1Nc1nc2c(c(NC3CCCCC3N(C)S(C)(=O)=O)n1)C(C)(C)CN2` (stereo not drawn) [Example 127, N-(2-(2-(2-methoxy-4-morpholinophenylamino)-5,5-dimethyl-6,7-dihydro-5H-pyrrolo[2,3-d]pyrimidin-4-ylamino)cyclohexyl)-N-methylmethanesulfonamide]: the pIC50 against FAK and at PYK2 was more than 7.00 each time.

`COc1cc(N2CCOCC2)ccc1Nc1nc2c(c(Nc3ccccc3S(=O)(=O)NC3CC3)n1)CCN2` [Example 42, N-cyclopropyl-2-(2-(2-methoxy-4-morpholinophenylamino)-6,7-dihydro-5H-pyrrolo[2,3-d]pyrimidin-4-ylamino)benzenesulfonamide]: the negative-log IC50 (pIC50) against FAK was more than 7.70; on PYK2 it was more than 7.30.

As for `COc1cc(N2CCC(O)CC2)ccc1Nc1nc2c(c(Nc3ccccc3S(=O)(=O)NC(C)C)n1)CCN2` [Example 86, 2-(2-(4-(4-hydroxypiperidin-1-yl)-2-methoxyphenylamino)-6,7-dihydro-5H-pyrrolo[2,3-d]pyrimidin-4-ylamino)-N-isopropylbenzenesulfonamide], the negative logarithm of the IC50 (pIC50) on FAK and against PYK2 was more than 7.70 in each case.

Regarding `COc1cc(N2CCC(CO)CC2)ccc1Nc1nc2c(c(Nc3ccccc3S(=O)(=O)NC(C)C)n1)CCN2` [Example 79, 2-(2-(4-(4-(hydroxymethyl)piperidin-1-yl)-2-methoxyphenylamino)-6,7-dihydro-5H-pyrrolo[2,3-d]pyrimidin-4-ylamino)-N-isopropylbenzenesulfonamide], the pIC50 against FAK and on PYK2 was more than 7.70 throughout.

Broadly, the pIC50 is the negative decadic logarithm of the IC50, by convention in mol/L.
